Laboratory results reported in ChEMBL document CHEMBL3797197, “Design and synthesis of triazole-based peptidomimetics of a PSD-95 PDZ domain inhibitor” (Medchemcomm, 2016).
Activity calls are given as the source filed them. The calls are words filed in the database; no cut-off is given here. Residues, ends and D or L forms follow the SMILES beside them.

What was measured:
[1] = target: T1, Disks large homolog 4 (Homo sapiens, UniProt P78352); assay: Displacement of Cy5-GluN2B from N-terminal His-tagged human full length PSD-95alpha PDZ1 domain (61 to 151 residues) without exon 4b expressed in Escherichia coli BL21(DE3)pLysS by fluorescence polarization assay
Target sequence in this assay (P78352 whole entry, the tested form may be a part): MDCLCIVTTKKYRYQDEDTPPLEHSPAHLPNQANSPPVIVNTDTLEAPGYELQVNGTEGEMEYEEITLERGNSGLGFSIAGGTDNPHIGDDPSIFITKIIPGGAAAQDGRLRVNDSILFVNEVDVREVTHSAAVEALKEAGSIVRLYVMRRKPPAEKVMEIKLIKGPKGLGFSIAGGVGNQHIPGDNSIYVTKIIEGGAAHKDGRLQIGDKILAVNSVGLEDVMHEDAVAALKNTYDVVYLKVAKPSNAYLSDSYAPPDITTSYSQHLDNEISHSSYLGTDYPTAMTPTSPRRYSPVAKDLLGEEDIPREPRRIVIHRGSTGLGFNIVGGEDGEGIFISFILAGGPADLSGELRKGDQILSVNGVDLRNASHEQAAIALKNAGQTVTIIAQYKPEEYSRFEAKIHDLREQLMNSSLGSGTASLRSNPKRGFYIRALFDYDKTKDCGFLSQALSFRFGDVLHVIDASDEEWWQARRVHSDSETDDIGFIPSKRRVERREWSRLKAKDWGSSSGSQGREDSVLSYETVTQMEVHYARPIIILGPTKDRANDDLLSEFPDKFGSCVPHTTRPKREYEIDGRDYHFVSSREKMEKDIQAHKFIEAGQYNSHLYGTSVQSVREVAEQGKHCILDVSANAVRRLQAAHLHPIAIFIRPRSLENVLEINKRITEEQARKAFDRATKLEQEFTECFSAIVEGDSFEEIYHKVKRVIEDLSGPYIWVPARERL

[2] = target: T1, Disks large homolog 4; assay: Displacement of Cy5-GluN2B from N-terminal His-tagged full length human PSD-95alpha PDZ2 domain (155 to 249 residues) without exon 4b expressed in Escherichia coli BL21(DE3)pLysS by fluorescence polarization assay
Target sequence in this assay (P78352 whole entry, the tested form may be a part): as above

[3] = target: Disks large homolog 4 (Rattus norvegicus, UniProt P31016); assay: Inhibition of rat PSD-95 PDZ1 domain interaction with mouse 5HT2A receptor after 18 hrs by pull down assay
Chain of Disks large homolog 4 (Rattus norvegicus, UniProt P31016) (P31016 whole entry, the tested form may be a part): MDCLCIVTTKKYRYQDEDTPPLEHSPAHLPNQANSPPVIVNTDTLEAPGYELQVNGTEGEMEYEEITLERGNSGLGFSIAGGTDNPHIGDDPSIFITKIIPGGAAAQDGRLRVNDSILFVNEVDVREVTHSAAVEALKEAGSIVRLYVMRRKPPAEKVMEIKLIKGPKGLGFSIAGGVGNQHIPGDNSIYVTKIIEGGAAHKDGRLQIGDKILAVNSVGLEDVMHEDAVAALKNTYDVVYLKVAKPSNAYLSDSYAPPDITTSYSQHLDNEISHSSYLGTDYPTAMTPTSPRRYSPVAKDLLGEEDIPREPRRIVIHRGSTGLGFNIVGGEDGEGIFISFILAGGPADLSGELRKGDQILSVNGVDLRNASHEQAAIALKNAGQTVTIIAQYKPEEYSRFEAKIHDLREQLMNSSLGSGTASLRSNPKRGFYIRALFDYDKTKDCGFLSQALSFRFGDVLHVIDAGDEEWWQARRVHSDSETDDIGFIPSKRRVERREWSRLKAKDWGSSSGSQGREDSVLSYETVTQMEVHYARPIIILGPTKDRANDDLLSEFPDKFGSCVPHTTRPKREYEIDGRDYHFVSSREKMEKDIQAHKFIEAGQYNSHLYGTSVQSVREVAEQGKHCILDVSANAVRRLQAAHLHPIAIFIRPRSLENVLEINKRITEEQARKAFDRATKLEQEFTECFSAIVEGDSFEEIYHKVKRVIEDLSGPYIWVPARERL

[4] = target: T1, Disks large homolog 4; assay: Displacement of Cy5-CRIPT from N-terminal His-tagged human full length PSD-95alpha PDZ3 domain (309 to 401 residues) without exon 4b expressed in Escherichia coli BL21(DE3)pLysS by fluorescence polarization assay
Target sequence in this assay (P78352 whole entry, looked up, the tested form may be a part): as the sequence (P78352 whole entry, the tested form may be a part) above

[5] = target: T1, Disks large homolog 4; assay: Potency index, ratio of indole 1 Ki to compound Ki for N-terminal His-tagged full length human PSD-95alpha PDZ2 domain (155 to 249 residues) without exon 4b expressed in Escherichia coli BL21(DE3)pLysS
Target sequence in this assay (P78352 whole entry, looked up, the tested form may be a part): as the sequence (P78352 whole entry, the tested form may be a part) above

[6] = target: T1, Disks large homolog 4; assay: Ratio of Kd for N-terminal His-tagged full length human PSD-95alpha PDZ2 domain (155 to 249 residues) without exon 4b expressed in Escherichia coli BL21(DE3)pLysS by […] method to Ki for N-terminal His-tagged full length human PSD-95alpha PDZ2 domain (155 to 249 residues) without exon 4b expressed in Escherichia coli BL21(DE3)pLysS by fluorescence polarization assay
Target sequence in this assay (P78352 whole entry, looked up, the tested form may be a part): as the sequence (P78352 whole entry, the tested form may be a part) above

[7] = target: T1, Disks large homolog 4; assay: Binding affinity to N-terminal His-tagged full length human PSD-95alpha PDZ2 domain (155 to 249 residues) without exon 4b expressed in Escherichia coli BL21(DE3)pLysS by […] method
Target sequence in this assay (P78352 whole entry, the tested form may be a part): as above

| Ki [1] | Ki [2] | IC50 [3] | inhibition [4] | Ratio Ki [5] | Ratio [6] | Kd [7] | Compound |
| --- | --- | --- | --- | --- | --- | --- | --- |
| > 1000 µM | > 500 µM | 190 µM | inactive | – | – | – | Cc1c(C(=O)O)n(CCCC(=O)O)c2cc(C(=O)O)c(OCc3ccccc3)cc12 |
| 480 µM | 229 µM | – | – | – | – | – | CC(C)[C@H](NC(=O)[C@H](C)NC(=O)[C@@H](N)CO)C(=O)O (H-Ser-Ala-Val-OH) |
| > 500 µM | 289 µM | – | inactive | 2 | 2 | 598 µM | CC(C)[C@H](NC(=O)[C@H](C)n1cc([C@@H](N)[C@@H](C)O)nn1)C(=O)O |
| – | > 500 µM | – | – | – | – | – | CC(C)[C@H](NC(=O)c1cn([C@H](C(=O)O)C(C)C)nn1)C(=O)O |
| 74 µM | 38 µM | – | – | – | 2 | 101 µM | CC(C)[C@H](NC(=O)[C@H](C)NC(=O)[C@@H](N)[C@@H](C)O)C(=O)O (H-Thr-Ala-Val-OH) |
| > 1000 µM | 530 µM | – | inactive | – | – | – | Cc1c(C(=O)O)[nH]c2cc(C(=O)O)c(O)cc12 |
| – | > 500 µM | – | – | – | – | – | CC(C)[C@@H](C(=O)O)n1cc([C@H](C)NC(=O)[C@@H](N)[C@@H](C)O)nn1 |
